These results are taken from paper PMC5688144, “Assay interference and off-target liabilities of reported histone acetyltransferase inhibitors” (Nature Communications, 2017).

By IC50 is commonly meant the midpoint of a concentration-inhibition curve. For orientation: inhibition means the change of the read-out against control, counted positive when it falls.

One series has as its system p300/CBP. Particulars: original report; 27 (Supplementary References); cited from earlier work.
For a further series, the system named is five tested HATs. Description: HAT selectivity panel with DTT (Reaction Biology). In kind it is biochemical. To be noted: 10 μM compound; DTT in reaction buffer. The procedure: Selectivity profiles vs. HATs, HDACs, SIRTs, HMTs, proteases, kinases, and phosphatases were performed by Reaction Biology Corporation (Malvern, PA; Fig. 3 and Supplementary Fig. 3). Percent activity was normalized to DMSO-only controls. Reference control compounds were included in each assay.
Relevant reaction procedures for each target class are briefly summarized (see reactionbiology.com for additional details). HATs: reaction buffer 50 mM Tris–HCl, pH 8.0, 50 mM NaCl, 0.1 mM EDTA, ± 1 mM DTT, 1 mM PMSF, 1% DMSO; substrate [^3H]-acetyl-CoA; reaction time 1 h; end-point measurement. HDACs: reaction buffer 50 mM Tris–HCl, pH 8.0, 137 mM NaCl, 2.7 mM KCl, 1 mM MgCl2, 1 mg mL^−1 BSA, 1% DMSO; fluorogenic substrate p53 residues 379–382 (RHKK(Ac)-AMC) (HDAC1/2/3/6/10), fluorogenic substrate p53 residues 379–382 (RHK(Ac)K(Ac)AMC) (HDAC8); fluorogenic substrate trifluoroacetyl lysine (HDAC4/5/7/9/11); pre-incubation included; reaction time 1–2 h; trichostatin A or TMP269 quencher; fluorescent readout λexcite = 360 nm, λemission = 460 nm; end-point measurement. SIRTs: reaction buffer 50 mM Tris–HCl, pH 8.0, 137 mM NaCl, 2.7 mM KCl, 1 mM MgCl2, 1 mg mL^−1 BSA, 1% DMSO; fluorogenic substrate p53 residues 379–382 (RHKK(Ac)-AMC) (SIRT1/2/3); fluorogenic substrate Ac-Lys(Succ)-AMC (SIRT5); substrate: 500 µM NAD^+; reaction time 2 h; nicotinamide quencher; fluorescent readout λexcite = 360 nm, λemission = 460 nm; end-point measurement (1.5 h development). HMTs: reaction buffer 50 mM Tris–HCl, pH 8.0, 0.01% Brij35, 1 mM EDTA, 1 mM DTT, 1 mM PMSF, 1% DMSO (EZH2); reaction buffer 50 mM Tris–HCl, pH 7.5, 5 mM EDTA, 0.01% Brij35, 5 mM DTT, 0.1 mM PMSF, 5% glycerol, 1% DMSO; 50 mM Tris–HCl, pH 8.5, 5 mM MgCl2, 50 mM NaCl, 0.01 Brij35, 1 mM DTT, 1% DMSO (G9a); methyl donor 1 μM S-Adenosyl-L-[methyl-^3H]-methionine; substrate 5 μM histone proteins or 0.05 mg mL^−1 nucleosomes; pre-incubation time 10–15 min; reaction time 0.5–1 h; end-point measurement. Caspases: reaction buffer 50 mM HEPES, pH 7.4, 1 M citrate, 100 mM NaCl, 0.01% CHAPS, 0.1 mM EDTA, 10 mM DTT; fluorogenic peptide substrate; pre-incubation time 10 min; reaction time 2 h; time-course measurement. Kinases: reaction buffer 20 mM HEPES, pH 7.5, 10 mM MgCl2, 1 mM EGTA, 0.02% Brij35, 0.02 mg mL^−1 BSA, 0.1 mM Na3VO4, 2 mM DTT, 1% DMSO; substrate [^33P]-ATP; reaction time 2 h; end-point measurement.

A short description of another series: Absorbance spectra. In kind it is physicochemical. Particulars: for Absorption max (nm) / Absorbance counter-screen: 25 mM sodium phosphate, pH 7.0; for Absorbance counter-screen: 300-750 nm; for Molar absorptivity: at absorption max. Summed up: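 Spectra from 300 to 750 nm were recorded at 100, 50 and 10 μM final compound in 25 mM sodium phosphate pH 7.0 with 2.0% DMSO, after 10 min at RT, read at 25 °C. Significant absorbance meant molar absorptivity above 2000 M^−1 cm^−1 at wavelengths above 300 nm.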
(In general: The purpose of a counterscreen is to sort out artefacts and off-target activity.)

A further series addresses T1, AmpC β-lactamase (Escherichia coli, UniProt P00811).
T1 construct: Recombinant E. coli AmpC (amino acids 20–377); purchased MyBioSource.com
Kind of series: biochemical. The arrangement: species or system E. coli. To be noted: for AmpC aggregation counter-screen / AmpC counter-screen result: 10 μM compound; for AmpC aggregation counter-screen: ± 0.01% Triton X-100; for AmpC counter-screen result: detergent-sensitive modulation. The gist of the method: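 Compounds at 10 μM (2% DMSO, triplicate) were preincubated 5 min at RT with ~5 nM E. coli AmpC (residues 20–377) in 25 mM sodium phosphate pH 7.0, with or without 0.01% Triton X-100, then given 100 μM nitrocefin. Activity was normalized to DMSO; aggregation was called on a detergent-dependent change >30% (adjusted P <0.05).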

Another series deals with CBP. Particulars: original report; 22 (Supplementary References); cited from earlier work.
A further series has as its target T2, PCAF (Homo sapiens, UniProt Q92831).
T2 construct: Reaction Biology Corporation (assays run by this contract lab)
Particulars: cited from earlier work.

The next series deals with GCN5. To be noted: cited from earlier work.
Where [1] appears, read: @ 5 µM, ref 16 (Supplementary References).
[2] abbreviates: @ 10 µM, ref 5 (Supplementary References).

Read-outs that look alike come from different tables or passages of the source.

T2 sequence (Q92831 whole entry, species assumed): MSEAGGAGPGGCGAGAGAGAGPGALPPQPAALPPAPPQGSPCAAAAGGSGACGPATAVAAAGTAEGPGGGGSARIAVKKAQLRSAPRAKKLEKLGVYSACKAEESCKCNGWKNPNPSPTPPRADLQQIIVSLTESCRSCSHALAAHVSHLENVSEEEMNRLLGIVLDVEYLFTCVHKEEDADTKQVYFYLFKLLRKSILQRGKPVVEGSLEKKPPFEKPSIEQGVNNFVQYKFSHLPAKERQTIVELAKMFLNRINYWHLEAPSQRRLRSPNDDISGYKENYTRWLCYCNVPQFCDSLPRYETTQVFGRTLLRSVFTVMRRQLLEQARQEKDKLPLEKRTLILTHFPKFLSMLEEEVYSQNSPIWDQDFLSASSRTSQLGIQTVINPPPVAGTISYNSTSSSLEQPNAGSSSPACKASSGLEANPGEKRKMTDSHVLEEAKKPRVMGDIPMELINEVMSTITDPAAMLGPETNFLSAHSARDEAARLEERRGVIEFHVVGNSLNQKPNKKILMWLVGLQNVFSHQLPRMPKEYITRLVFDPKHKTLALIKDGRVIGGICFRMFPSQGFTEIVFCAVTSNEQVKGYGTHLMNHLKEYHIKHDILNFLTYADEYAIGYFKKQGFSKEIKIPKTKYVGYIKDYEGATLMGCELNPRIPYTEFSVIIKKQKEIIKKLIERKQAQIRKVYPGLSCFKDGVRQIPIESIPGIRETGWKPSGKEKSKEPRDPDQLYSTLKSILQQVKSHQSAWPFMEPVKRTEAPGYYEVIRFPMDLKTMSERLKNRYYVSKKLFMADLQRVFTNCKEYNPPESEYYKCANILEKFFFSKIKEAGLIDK
T1 sequence (P00811 20-377): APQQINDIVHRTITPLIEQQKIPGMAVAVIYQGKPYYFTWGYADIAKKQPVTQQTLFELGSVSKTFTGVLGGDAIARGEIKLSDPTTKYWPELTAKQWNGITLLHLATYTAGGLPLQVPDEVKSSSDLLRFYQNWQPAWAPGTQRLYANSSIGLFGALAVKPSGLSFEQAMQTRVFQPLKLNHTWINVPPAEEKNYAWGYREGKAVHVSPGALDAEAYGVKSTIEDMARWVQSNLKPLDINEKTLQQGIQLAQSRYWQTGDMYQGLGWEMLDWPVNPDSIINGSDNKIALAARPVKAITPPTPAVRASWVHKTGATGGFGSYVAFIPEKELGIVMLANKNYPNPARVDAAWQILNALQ

Consider Garcinol [Compound 13], for which, in the series with p300/CBP, the IC50 was 5 µM. Also, the “activity vs. the five tested HATs” value in the series with five tested HATs is “potent inhibition of at least one HAT”. For the same molecule, in “Absorbance spectra”, the “Absorption max (nm)” value turned out to be 290 nm and the Absorbance counter-screen result is reported as “Negative”. Besides, on AmpC β-lactamase, the AmpC aggregation counter-screen entry is reported as “Detergent-sensitive (Aggregators were defined as compounds with significant detergent-dependent changes in AmpC activity (t-test, adjusted P-value <0.05; mean differences greater than 30%))”.
Consider `COc1ccc(/C(Cl)=C(/C=O)c2ccc(OC)cc2)cc1` [Compound 18, Windorphen], for which, in the series with CBP, the IC50 is 51.3 µM. For the same molecule, the 50% inhibitory concentration (IC50) at PCAF (original report, 27 (Supplementary References)) is over 100 µM. For the same molecule, the “activity vs. the five tested HATs” value in the series with five tested HATs is “minimal activity”. Moreover, in “Absorbance spectra”, the “Absorption max (nm)” value was 345 nm, the Absorbance counter-screen result is “Flagged (Significant absorbance was defined as molar absorptivity constants greater than 2000 M^−1 cm^−1 at wavelengths greater than 300 nm)” and the “Molar absorptivity” value was found to be 4300 M⁻¹ cm⁻¹. The AmpC aggregation counter-screen result at AmpC β-lactamase was “Detergent-insensitive”. Further, the concentration for half-maximal inhibition (IC50) with GCN5 (original report, 22 (Supplementary References)) is over 100 µM.
For the molecule `O=C1/C(=C/c2ccc(O)c(Br)c2)CCC/C1=C\c1ccc(O)c(Br)c1` [Compound 12, HAT inhibitor II], the 50% inhibitory concentration (IC50) with p300/CBP was 5 µM. Moreover, the “% inhibition, PCAF” value at PCAF (setting [1]) is under 1%. The “activity vs. the five tested HATs” value with five tested HATs is “potent inhibition of at least one HAT”. Besides, in “Absorbance spectra”, the “Absorption max (nm)” value was 355 nm, the Absorbance counter-screen result is “Flagged (Significant absorbance was defined as molar absorptivity constants greater than 2000 M^−1 cm^−1 at wavelengths greater than 300 nm)” and the “Molar absorptivity” value amounted to 5100 M⁻¹ cm⁻¹. For the same molecule, the AmpC aggregation counter-screen result at AmpC β-lactamase was “Detergent-sensitive (Aggregators were defined as compounds with significant detergent-dependent changes in AmpC activity (t-test, adjusted P-value <0.05; mean differences greater than 30%))”. In the series on GCN5 (setting [1]), the “% inhibition, GCN5” value is 30%.
For `Cc1cc(O)cc(C)c1C=C1C(=O)N(Cc2ccccc2)C(=O)N(Cc2ccccc2)C1=O` [Compound 4, EML425], in the series on CBP, the half-maximal inhibitory concentration (IC50) is 1.1 µM. For the same molecule, the “activity vs. the five tested HATs” value with five tested HATs is reported as “potent inhibition of at least one HAT”. For the same molecule, in the series “Absorbance spectra”, the “Absorption max (nm)” value turned out to be 425 nm, the Absorbance counter-screen entry is “Flagged (Significant absorbance was defined as molar absorptivity constants greater than 2000 M^−1 cm^−1 at wavelengths greater than 300 nm)” and the “Molar absorptivity” value is 2700 M⁻¹ cm⁻¹. At AmpC β-lactamase, the “AmpC counter-screen result” value was “likely aggregators” and the AmpC aggregation counter-screen entry was “Detergent-sensitive (Aggregators were defined as compounds with significant detergent-dependent changes in AmpC activity (t-test, adjusted P-value <0.05; mean differences greater than 30%))”.
In the case of `CC1=NN(c2ccc(C(=O)O)cc2)C(=O)/C1=C/c1ccc(-c2cc(C)c(C)cc2[N+](=O)[O-])o1` [Compound 1, C646], in the series with p300/CBP, the half-maximal inhibitory concentration (IC50) is […]. In addition, on PCAF (setting [2]), the “% inhibition, PCAF” value was under 10%. For the same molecule, the “activity vs. the five tested HATs” value in the series on five tested HATs is reported as “potent inhibition of at least one HAT”. In the series “Absorbance spectra”, the “Absorption max (nm)” value is recorded as 405 nm, the Absorbance counter-screen result is “Flagged (Significant absorbance was defined as molar absorptivity constants greater than 2000 M^−1 cm^−1 at wavelengths greater than 300 nm)” and the “Molar absorptivity” value was 18000 M⁻¹ cm⁻¹. In addition, on AmpC β-lactamase, the “AmpC counter-screen result” value was “likely aggregators” and the AmpC aggregation counter-screen result is “Detergent-sensitive (activator)”. In addition, the inhibition at 10 µM on AmpC β-lactamase (read-out: % Inhibition, AmpC) was -58 ± 56%. In addition, the “% inhibition, GCN5” value in the series on GCN5 (setting [2]) was under 10%.
For the molecule `O=c1c2cccnc2sn1Cc1ccc(C(F)(F)F)cc1` [Compound 3, PU141], the IC50 on PCAF (H4 peptide substrate, ref 7 (Supplementary References)) was 35.5 µM. The “activity vs. the five tested HATs” value in the series with five tested HATs is given as “minimal activity”. In “Absorbance spectra”, the “Absorption max (nm)” value was 315 nm, the Absorbance counter-screen result is listed as “Flagged (Significant absorbance was defined as molar absorptivity constants greater than 2000 M^−1 cm^−1 at wavelengths greater than 300 nm)” and the “Molar absorptivity” value worked out at 2700 M⁻¹ cm⁻¹. The AmpC aggregation counter-screen entry on AmpC β-lactamase is listed as “Detergent-insensitive”.
